# In patent US20230085307A1, “PYRIDAZINONE COMPOUND AND HERBICIDE” (NISSAN CHEMICAL CORPORATION, priority 2019, published 2023):
# Tests used:
# southern crabgrass [1] = assay: Test Example 5: herbicidal effect by foliage application, plastic box (Table 20, symbol F); assay type: in vivo, southern crabgrass (Digitaria ciliaris); settings: amount of applied herbicide 320 g/ha; foliage application after 14-day growth; evaluated three weeks after application
# Method in brief: (§1)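 Sow seeds spot-wise in sterilized diluvial soil; cover with ~1.5 cm soil. Grow 14 days in greenhouse, 25° C. to 30° C. Spray foliage with emulsion diluted to predetermined amount. Rate effect after 3 weeks.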
# chickweed [2] = assay: Test Example 5: herbicidal effect by foliage application, plastic box (Table 20, symbol P); assay type: in vivo, common chickweed (Stellaria media); settings: amount of applied herbicide 320 g/ha; foliage application after 14-day growth; evaluated three weeks after application
# Method in brief: as §1
# chickweed [3] = assay: Test Example 4: herbicidal effect by soil treatment (Table 19, symbol P); assay type: in vivo, common chickweed (Stellaria media); settings: amount of applied herbicide 320 g/ha
# Method in brief: (§2)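 Applied as a water-diluted emulsion, the compound was sprayed onto soil covering newly sown seeds. Evaluation came three weeks after application, in a greenhouse held at 25° C. to 30° C.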
# green foxtail [4] = assay: Test Example 4: herbicidal effect by soil treatment (Table 19, symbol G); assay type: in vivo, green foxtail (Setaria viridis); settings: amount of applied herbicide 320 g/ha
# Method in brief: as §2
# rice flat sedge = assay: Test Example 3: herbicidal effect by foliage application, Wagner pot (Table 18, symbol E); assay type: in vivo, rice flat sedge (Cyperus iria); settings: 320 g/ha
# Method in brief: (§3)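 Plants were sown in alluvial soil held under 0.1–0.5 cm standing water and grown 14 days in a greenhouse at 25–30 °C. An emulsifiable formulation, water-diluted to the set dose, was then sprayed onto the foliage, and effects were scored three weeks later using previously defined criteria.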
# blackgrass [5] = assay: Test Example 5: herbicidal effect by foliage application, plastic box (Table 20, symbol J); assay type: in vivo, blackgrass (Alopecurus myosuroides); settings: amount of applied herbicide 320 g/ha; foliage application after 14-day growth; evaluated three weeks after application
# Method in brief: as §1
# barnyard grass [6] = assay: Test Example 5: herbicidal effect by foliage application, plastic box (Table 20, symbol H); assay type: in vivo, barnyard grass (Echinochloa crus-galli); settings: amount of applied herbicide 320 g/ha; foliage application after 14-day growth; evaluated three weeks after application
# Method in brief: as §1
# Chinese sprangletop = assay: Test Example 3: herbicidal effect by foliage application, Wagner pot (Table 18, symbol D); assay type: in vivo, chinese sprangletop (Leptochloa chinensis); settings: 320 g/ha
# Method in brief: as §3
# persian speedwell [7] = assay: Test Example 5: herbicidal effect by foliage application, plastic box (Table 20, symbol R); assay type: in vivo, Persian speedwell (Veronica persica); settings: amount of applied herbicide 320 g/ha; foliage application after 14-day growth; evaluated three weeks after application
# Method in brief: as §1
# redroot pigweed [8] = assay: Test Example 5: herbicidal effect by foliage application, plastic box (Table 20, symbol N); assay type: in vivo, redroot pigweed (Amaranthus retroflexus); settings: amount of applied herbicide 320 g/ha; foliage application after 14-day growth; evaluated three weeks after application
# Method in brief: as §1
# wild oat [9] = assay: Test Example 5: herbicidal effect by foliage application, plastic box (Table 20, symbol I); assay type: in vivo, wild oat (Avena fatua); settings: amount of applied herbicide 320 g/ha; foliage application after 14-day growth; evaluated three weeks after application
# Method in brief: as §1
# redroot pigweed [10] = assay: Test Example 4: herbicidal effect by soil treatment (Table 19, symbol N); assay type: in vivo, redroot pigweed (Amaranthus retroflexus); settings: amount of applied herbicide 320 g/ha
# Method in brief: as §2
# Italian ryegrass [11] = assay: Test Example 4: herbicidal effect by soil treatment (Table 19, symbol K); assay type: in vivo, Italian ryegrass (Lolium multiflorum); settings: amount of applied herbicide 320 g/ha
# Method in brief: as §2
# green foxtail [12] = assay: Test Example 5: herbicidal effect by foliage application, plastic box (Table 20, symbol G); assay type: in vivo, green foxtail (Setaria viridis); settings: amount of applied herbicide 320 g/ha; foliage application after 14-day growth; evaluated three weeks after application
# Method in brief: as §1
# windgrass [13] = assay: Test Example 5: herbicidal effect by foliage application, plastic box (Table 20, symbol L); assay type: in vivo, windgrass (Apera spica-venti); settings: amount of applied herbicide 320 g/ha; foliage application after 14-day growth; evaluated three weeks after application
# Method in brief: as §1
# Italian ryegrass [14] = assay: Test Example 5: herbicidal effect by foliage application, plastic box (Table 20, symbol K); assay type: in vivo, Italian ryegrass (Lolium multiflorum); settings: amount of applied herbicide 320 g/ha; foliage application after 14-day growth; evaluated three weeks after application
# Method in brief: as §1
# barnyard grass [15] = assay: Test Example 4: herbicidal effect by soil treatment (Table 19, symbol H); assay type: in vivo, barnyard grass (Echinochloa crus-galli); settings: amount of applied herbicide 320 g/ha
# Method in brief: as §2
# velvetleaf [16] = assay: Test Example 5: herbicidal effect by foliage application, plastic box (Table 20, symbol M); assay type: in vivo, velvetleaf (Abutilon theophrasti); settings: amount of applied herbicide 320 g/ha; foliage application after 14-day growth; evaluated three weeks after application
# Method in brief: as §1
# lambsquarters [17] = assay: Test Example 4: herbicidal effect by soil treatment (Table 19, symbol O); assay type: in vivo, lambsquarters (Chenopodium album); settings: amount of applied herbicide 320 g/ha
# Method in brief: as §2
# persian speedwell [18] = assay: Test Example 4: herbicidal effect by soil treatment (Table 19, symbol R); assay type: in vivo, Persian speedwell (Veronica persica); settings: amount of applied herbicide 320 g/ha
# Method in brief: as §2
# wild oat [19] = assay: Test Example 4: herbicidal effect by soil treatment (Table 19, symbol I); assay type: in vivo, wild oat (Avena fatua); settings: amount of applied herbicide 320 g/ha
# Method in brief: as §2
# velvetleaf [20] = assay: Test Example 4: herbicidal effect by soil treatment (Table 19, symbol M); assay type: in vivo, velvetleaf (Abutilon theophrasti); settings: amount of applied herbicide 320 g/ha
# Method in brief: as §2
# windgrass [21] = assay: Test Example 4: herbicidal effect by soil treatment (Table 19, symbol L); assay type: in vivo, windgrass (Apera spica-venti); settings: amount of applied herbicide 320 g/ha
# Method in brief: as §2
# southern crabgrass [22] = assay: Test Example 4: herbicidal effect by soil treatment (Table 19, symbol F); assay type: in vivo, southern crabgrass (Digitaria ciliaris); settings: amount of applied herbicide 320 g/ha
# Method in brief: as §2
# barnyard grass [23] = assay: Test Example 3: herbicidal effect by foliage application, Wagner pot (Table 18, symbol H); assay type: in vivo, barnyard grass (Echinochloa crus-galli); settings: 320 g/ha
# Method in brief: as §3
# lambsquarters [24] = assay: Test Example 5: herbicidal effect by foliage application, plastic box (Table 20, symbol O); assay type: in vivo, lambsquarters (Chenopodium album); settings: amount of applied herbicide 320 g/ha; foliage application after 14-day growth; evaluated three weeks after application
# Method in brief: as §1
# blackgrass [25] = assay: Test Example 4: herbicidal effect by soil treatment (Table 19, symbol J); assay type: in vivo, blackgrass (Alopecurus myosuroides); settings: amount of applied herbicide 320 g/ha
# Method in brief: as §2
structure (smiles),measurement,setting,value
Cc1nn(C)c(=O)c(-c2c(-c3ccc(Br)cc3)sc3c(C)cccc23)c1O [4-104],"Herbicidal effect by foliage application, F: southern crabgrass",southern crabgrass [1],0 (Herbicidal rate of 5% or less (almost no effect))
same,"Herbicidal effect by foliage application, P: chickweed",chickweed [2],5 (Herbicidal rate of 90% or more (almost completely withered))
same,"Herbicidal effect by soil treatment, P: chickweed",chickweed [3],3 (Herbicidal rate of 40% or more and less than 70%)
same,"Herbicidal effect by soil treatment, G: green foxtail",green foxtail [4],0 (Herbicidal rate of 5% or less (almost no effect))
same,herbicidal effect on rice flat sedge (E),rice flat sedge,0 (Herbicidal rate of 5% or less (almost no effect))
same,"Herbicidal effect by foliage application, J: blackgrass",blackgrass [5],0 (Herbicidal rate of 5% or less (almost no effect))
same,"Herbicidal effect by foliage application, H: barnyard grass",barnyard grass [6],0 (Herbicidal rate of 5% or less (almost no effect))
same,herbicidal effect on Chinese sprangletop (D),Chinese sprangletop,0 (Herbicidal rate of 5% or less (almost no effect))
same,"Herbicidal effect by foliage application, R: persian speedwell",persian speedwell [7],5 (Herbicidal rate of 90% or more (almost completely withered))
same,"Herbicidal effect by foliage application, N: redroot pigweed",redroot pigweed [8],5 (Herbicidal rate of 90% or more (almost completely withered))
same,"Herbicidal effect by foliage application, I: wild oat",wild oat [9],0 (Herbicidal rate of 5% or less (almost no effect))
same,"Herbicidal effect by soil treatment, N: redroot pigweed",redroot pigweed [10],4 (Herbicidal rate of 70% or more and less than 90%)
same,"Herbicidal effect by soil treatment, K: Italian ryegrass",Italian ryegrass [11],0 (Herbicidal rate of 5% or less (almost no effect))
same,"Herbicidal effect by foliage application, G: green foxtail",green foxtail [12],0 (Herbicidal rate of 5% or less (almost no effect))
same,"Herbicidal effect by foliage application, L: windgrass",windgrass [13],3 (Herbicidal rate of 40% or more and less than 70%)
same,"Herbicidal effect by foliage application, K: Italian ryegrass",Italian ryegrass [14],4 (Herbicidal rate of 70% or more and less than 90%)
same,"Herbicidal effect by soil treatment, H: barnyard grass",barnyard grass [15],0 (Herbicidal rate of 5% or less (almost no effect))
same,"Herbicidal effect by foliage application, M: velvetleaf",velvetleaf [16],5 (Herbicidal rate of 90% or more (almost completely withered))
same,"Herbicidal effect by soil treatment, O: lambsquarters",lambsquarters [17],1 (Herbicidal rate of 5% or more and less than 20%)
same,"Herbicidal effect by soil treatment, R: persian speedwell",persian speedwell [18],3 (Herbicidal rate of 40% or more and less than 70%)
same,"Herbicidal effect by soil treatment, I: wild oat",wild oat [19],0 (Herbicidal rate of 5% or less (almost no effect))
same,"Herbicidal effect by soil treatment, M: velvetleaf",velvetleaf [20],2 (Herbicidal rate of 20% or more and less than 40%)
same,"Herbicidal effect by soil treatment, L: windgrass",windgrass [21],0 (Herbicidal rate of 5% or less (almost no effect))
same,"Herbicidal effect by soil treatment, F: southern crabgrass",southern crabgrass [22],0 (Herbicidal rate of 5% or less (almost no effect))
same,herbicidal effect on barnyard grass (H),barnyard grass [23],2 (Herbicidal rate of 20% or more and less than 40%)
same,"Herbicidal effect by foliage application, O: lambsquarters",lambsquarters [24],4 (Herbicidal rate of 70% or more and less than 90%)
same,"Herbicidal effect by soil treatment, J: blackgrass",blackgrass [25],0 (Herbicidal rate of 5% or less (almost no effect))
